# Earlier results in patent US20230158047A1, “METHODS AND COMPOSITIONS FOR TREATING PROSTATE CANCER” (Tavanta Therapeutics Hungary Incorporated, priority 2020, published 2023).
# Tested on: PSA levels
# Conditions: phase 3, patients who failed prior chemotherapy with taxanes
smiles,measurement,value
"CC(=O)O[C@H]1CC[C@@]2(C)C(=CC[C@@H]3[C@@H]2CC[C@]2(C)C(c4cccnc4)=CC[C@@H]32)C1 [abiraterone acetate, 3β-acetoxy-17-(3-pyridyl)-androsta-5,16-diene]",patients with at least a 50% decline from baseline in PSA levels,38%
